Source: ChEMBL document CHEMBL1201862, “PubChem BioAssay data set” (2004)
Counter-ions that a name gives are not always drawn. Calls of active or inactive are those of the source.

Experiments:
[1] = biological target: T1, Protein skinhead-1 (Caenorhabditis elegans, UniProt P34707); format: functional
T1 sequence (P34707 whole entry): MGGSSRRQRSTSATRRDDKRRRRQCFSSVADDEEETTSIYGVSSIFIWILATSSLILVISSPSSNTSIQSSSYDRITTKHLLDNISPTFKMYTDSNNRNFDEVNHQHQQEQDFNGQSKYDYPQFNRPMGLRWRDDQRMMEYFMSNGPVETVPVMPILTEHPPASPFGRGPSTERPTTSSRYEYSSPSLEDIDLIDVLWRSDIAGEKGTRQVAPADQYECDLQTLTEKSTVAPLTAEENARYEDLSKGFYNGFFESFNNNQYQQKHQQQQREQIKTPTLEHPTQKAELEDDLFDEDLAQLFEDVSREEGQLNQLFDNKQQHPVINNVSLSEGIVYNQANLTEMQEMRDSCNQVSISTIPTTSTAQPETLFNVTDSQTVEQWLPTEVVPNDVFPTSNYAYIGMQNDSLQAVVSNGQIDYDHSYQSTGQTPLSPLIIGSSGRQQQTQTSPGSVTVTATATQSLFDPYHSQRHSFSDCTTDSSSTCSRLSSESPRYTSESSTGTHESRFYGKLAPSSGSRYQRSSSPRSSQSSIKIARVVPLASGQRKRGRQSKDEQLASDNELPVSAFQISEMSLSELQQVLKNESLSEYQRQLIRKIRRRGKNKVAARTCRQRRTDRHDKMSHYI

[2] = biological target: T2, Polyadenylate-binding protein 1 (Homo sapiens, UniProt P11940); experiment: PABP1 MLLE–PAM2 interaction inhibitors, dose response, miRNA deadenylation inhibitor project, biochemical, fluorescence polarization, Cy5-PAM2 peptide, secondary (AID 602260); format: functional; conditions: read-out: IC50_Mean
T2 sequence (P11940 whole entry): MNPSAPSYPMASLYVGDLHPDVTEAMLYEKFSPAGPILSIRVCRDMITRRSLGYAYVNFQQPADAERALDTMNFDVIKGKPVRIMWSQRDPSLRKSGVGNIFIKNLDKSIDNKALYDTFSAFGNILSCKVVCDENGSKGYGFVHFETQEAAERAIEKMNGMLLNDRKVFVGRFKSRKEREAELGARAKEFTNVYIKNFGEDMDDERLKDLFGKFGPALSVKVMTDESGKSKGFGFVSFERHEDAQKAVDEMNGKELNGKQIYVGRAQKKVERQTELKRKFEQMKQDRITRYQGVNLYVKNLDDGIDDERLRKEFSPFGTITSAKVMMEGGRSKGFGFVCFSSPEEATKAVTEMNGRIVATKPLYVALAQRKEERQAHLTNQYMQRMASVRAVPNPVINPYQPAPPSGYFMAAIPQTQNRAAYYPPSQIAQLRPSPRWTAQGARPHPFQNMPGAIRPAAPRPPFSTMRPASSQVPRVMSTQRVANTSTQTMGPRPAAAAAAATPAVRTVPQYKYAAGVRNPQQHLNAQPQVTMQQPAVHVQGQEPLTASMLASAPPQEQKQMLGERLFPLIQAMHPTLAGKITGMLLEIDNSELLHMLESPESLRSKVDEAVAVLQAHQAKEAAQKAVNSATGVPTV

[3] = biological target: T2, Polyadenylate-binding protein 1; experiment: PABP1 MLLE–PAM2 binding inhibitor potency, dose response, biochemical, fluorescence polarization, FITC-PAM2 peptide (AID 602259); format: functional; conditions: read-out: IC50_Mean
[4] = tested on: H9c2; experiment: cells; format: functional, cell-based; conditions: Rattus norvegicus, H9c2, Myocardium;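 note: confirmatory concentration-response retest of ultra-high-throughput screening hits for modulation of myocardial damage; cell death induced by hydrogen peroxide oxidative stress; compound pretreatment for 60 min then peroxide exposure for 2 h; potency is for protecting the cells against peroxide damage rather than for killing them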
[5] = biological target: T3, Corticotropin-releasing factor receptor 2/Corticotropin-releasing factor-binding protein (Homo sapiens, UniProt P24387+Q13324); experiment: Dose Response confirmation of uHTS hits for small molecule antagonists of the CRF-binding protein and CRF-R2 receptor complex.; format: functional; conditions: read-out: IC50_Mean
T3 sequence (Q13324 whole entry): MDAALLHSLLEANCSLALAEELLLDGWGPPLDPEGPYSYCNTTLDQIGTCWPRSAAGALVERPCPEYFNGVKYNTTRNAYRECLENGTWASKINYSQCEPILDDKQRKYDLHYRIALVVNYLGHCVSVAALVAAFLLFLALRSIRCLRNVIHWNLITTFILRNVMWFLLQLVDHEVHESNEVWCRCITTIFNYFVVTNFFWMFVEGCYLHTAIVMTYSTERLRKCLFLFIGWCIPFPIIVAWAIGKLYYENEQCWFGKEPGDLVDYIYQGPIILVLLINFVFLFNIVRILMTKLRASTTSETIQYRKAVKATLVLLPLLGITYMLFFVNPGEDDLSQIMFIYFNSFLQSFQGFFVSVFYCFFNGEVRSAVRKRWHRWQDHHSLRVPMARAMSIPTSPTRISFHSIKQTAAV
T3 sequence (P24387 whole entry): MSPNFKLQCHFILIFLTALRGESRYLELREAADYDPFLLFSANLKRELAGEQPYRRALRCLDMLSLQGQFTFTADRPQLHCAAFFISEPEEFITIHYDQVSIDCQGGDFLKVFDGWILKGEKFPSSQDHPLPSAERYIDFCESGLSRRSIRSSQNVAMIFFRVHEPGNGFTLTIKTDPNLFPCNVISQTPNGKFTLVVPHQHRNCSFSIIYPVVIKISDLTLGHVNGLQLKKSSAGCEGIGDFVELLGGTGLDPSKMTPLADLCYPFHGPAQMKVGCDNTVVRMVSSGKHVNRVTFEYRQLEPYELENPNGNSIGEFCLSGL

[6] = biological target: T3, Corticotropin-releasing factor receptor 2/Corticotropin-releasing factor-binding protein; experiment: activators of CRF receptor 2 with binding protein – uHTS hits, confirmation (AID 602473); format: functional; conditions: read-out: EC50_Mean
[7] = microbe, parasite or virus in culture; format: functional; conditions: Mycobacterium tuberculosis
[8] = biological target: T4, Carboxy-terminal domain RNA polymerase II polypeptide A small phosphatase 1 (Homo sapiens, UniProt Q9GZU7); experiment: inhibitors of CTDSP1, concentration-response testing, biochemical assay, absorbance-based, actives from ultra-high-throughput screening (AID 540297); format: functional
T4 sequence (Q9GZU7 whole entry): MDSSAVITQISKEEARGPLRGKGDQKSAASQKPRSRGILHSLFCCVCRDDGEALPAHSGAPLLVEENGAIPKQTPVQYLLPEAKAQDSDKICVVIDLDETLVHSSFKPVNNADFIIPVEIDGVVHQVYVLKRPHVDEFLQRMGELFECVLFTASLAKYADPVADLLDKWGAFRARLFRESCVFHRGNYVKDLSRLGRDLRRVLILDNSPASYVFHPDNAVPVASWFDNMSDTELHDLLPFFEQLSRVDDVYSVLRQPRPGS

[9] = biological target: T5, RNA-binding protein pos-1 (Caenorhabditis elegans, UniProt G5EF15); experiment: inhibitors of POS-1/mex-3 RNA binding, dose response, biochemical, fluorescence polarization (AID 1964);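 note: purified POS-1 fused to maltose binding protein made in E. coli; potency of compounds blocking POS-1 binding to fluorescent RNA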
T5 sequence (G5EF15 whole entry): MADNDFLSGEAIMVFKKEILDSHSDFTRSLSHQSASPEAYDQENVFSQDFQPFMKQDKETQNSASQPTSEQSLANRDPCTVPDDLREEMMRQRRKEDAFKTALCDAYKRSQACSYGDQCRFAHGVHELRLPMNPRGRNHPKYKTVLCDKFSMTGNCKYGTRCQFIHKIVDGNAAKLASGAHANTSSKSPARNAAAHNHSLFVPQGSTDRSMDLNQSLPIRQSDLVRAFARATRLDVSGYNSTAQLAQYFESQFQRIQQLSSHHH

[10] = biological target: T6, Zinc finger protein mex-5 (Caenorhabditis elegans, UniProt Q9XUB2); experiment: MEX-5/TCR-2 RNA interaction inhibitors, dose response, biochemical, C. elegans, fluorescence polarization (AID 1960)
T6 sequence (Q9XUB2 whole entry): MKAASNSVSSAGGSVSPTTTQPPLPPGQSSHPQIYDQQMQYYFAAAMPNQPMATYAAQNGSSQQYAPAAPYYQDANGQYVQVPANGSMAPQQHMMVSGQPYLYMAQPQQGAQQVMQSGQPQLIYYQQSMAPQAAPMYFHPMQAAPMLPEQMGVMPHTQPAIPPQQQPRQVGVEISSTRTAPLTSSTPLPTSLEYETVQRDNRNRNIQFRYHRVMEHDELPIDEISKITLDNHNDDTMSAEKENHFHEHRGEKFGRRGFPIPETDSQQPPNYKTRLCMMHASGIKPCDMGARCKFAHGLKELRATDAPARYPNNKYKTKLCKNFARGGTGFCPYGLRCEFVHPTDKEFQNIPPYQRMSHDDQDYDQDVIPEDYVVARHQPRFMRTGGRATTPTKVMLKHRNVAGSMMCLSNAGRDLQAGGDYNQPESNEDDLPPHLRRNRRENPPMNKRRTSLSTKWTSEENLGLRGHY

[11] = tested on: Streptococcus sp. 'group A'; experiment: growth inhibition of control SK(-) GAS strain, dose response, counter-screen for streptokinase expression inhibitor project, luminescence, kanamycin, BacTiterGlo, confirmation (AID 1900); format: functional, organism-based
[12] = biological target: T7, Streptokinase A (Streptococcus pyogenes serotype M1, UniProt P10520); experiment: S. pyogenes streptokinase expression inhibitors, potency, dose response, plasminogen activation absorbance, OD405 (AID 1914); format: functional, Streptococcus pyogenes M1 GAS;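 note: secreted streptokinase activity via plasminogen activation per viability signal from cell pellet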
T7 sequence (P10520 whole entry): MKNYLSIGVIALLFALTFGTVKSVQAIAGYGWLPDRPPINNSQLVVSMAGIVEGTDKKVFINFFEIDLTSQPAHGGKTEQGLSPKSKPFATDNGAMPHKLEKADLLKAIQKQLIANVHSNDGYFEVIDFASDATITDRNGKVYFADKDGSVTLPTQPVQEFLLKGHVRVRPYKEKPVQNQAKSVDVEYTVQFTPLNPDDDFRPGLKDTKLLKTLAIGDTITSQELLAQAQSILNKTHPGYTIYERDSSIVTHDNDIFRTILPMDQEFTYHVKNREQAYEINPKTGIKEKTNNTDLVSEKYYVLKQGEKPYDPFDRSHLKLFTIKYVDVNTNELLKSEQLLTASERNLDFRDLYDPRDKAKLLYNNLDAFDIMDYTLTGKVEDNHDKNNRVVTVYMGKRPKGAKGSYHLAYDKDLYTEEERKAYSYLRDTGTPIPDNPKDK

[13] = tested on: Streptococcus; experiment: Group A Streptococcus viability loss, dose response, counter-screen for streptokinase expression inhibitor project, luminescence, BacTiterGlo (AID 1915); format: functional, organism-based;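 note: potency for reduction of bacterial viability or growth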
[14] = inhibitors of intracellular T. cruzi replication, confirmation, NIH3T3 host cells, beta-gal luminescence (AID 2044); format: functional, cell-based;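 note: intracellular parasites grown in NIH/3T3 mouse fibroblasts as host cells; luminescent beta-galactosidase reporter signal from transgenic T. cruzi replicating inside host cells; inhibitors lower the luminescence signal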
[15] = cytotoxicity toward NIH3T3 fibroblasts, dose response, counter-screen, cell-based, ATP luminescence, mouse fibroblasts (AID 2010); format: functional;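 note: cells exposed to compound for about 90 hours before reading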

## CCc1ccc(NCc2nc(-c3ccccc3)no2)cc1
[1]
  IC50: > 100 µM (inactive)

## Cc1cc2cc(CN=C(S)Nc3ccc(OC(F)F)cc3)ccc2n1C
[2]
  IC50: > 66 µM (inactive)
[3]
  IC50: > 66 µM (inactive)
[1]
  IC50: > 100 µM (inactive)

## NC(=O)c1ccccc1OCC(=O)Nc1cccnc1Cl
[4]
  IC50: 27.7 µM (active)

## N#C/C(=C1\CCCN1)c1nc(O)c2ccccc2n1
[4]
  IC50: 60.4 µM (inactive)
[5]
  IC50: > 47.1 µM (inactive)
[6]
  EC50: > 53 µM (inactive)

## O=C(C1CC(=O)N(c2ccc3c(c2)OCCO3)C1)N1CCN(c2cccc(C(F)(F)F)c2)CC1 (centres undefined)
[7]
  CC50: > 40 µM (active)

## Cc1cc(=O)oc2cc(OCC(=O)N3CCN(C(=O)C4COc5ccccc5O4)CC3)c(Cl)cc12 (centres undefined)
[4]
  IC50: > 79 µM (inactive)

## C=C1c2cccc(OC)c2O[C@H](C(=O)OCC)[C@@H]1CCCCCC
[8]
  IC50: 10.2 µM (active)

## Cc1ccc(-c2ccc(=O)n(CC(=O)N3CCN(c4cc(Cl)ccc4C)CC3)n2)cc1
[7]
  CC50: > 40 µM (active)

## Cc1nn(-c2cc(Cl)ccc2N)c(=O)c2ccccc12
[8]
  IC50: 63.2 µM (active)

## COC(=O)CNC(=O)C1Nc2ccccc2C2C=CCC12 (centres undefined)
[9]
  EC50: > 300 µM (not active)
[10]
  EC50: 173 µM (active)

## O=C(CSc1ccc(-c2ccccn2)nn1)N1CCCc2ccccc21
[4]
  IC50: 20.8 µM (active)

## O=C(Nc1cccc(-c2csc(Nc3ccc(Cl)cc3)n2)c1)c1cccc(C(F)(F)F)c1
[7]
  CC50: 20.6 µM (active)

## NC(=O)c1ccsc1NC(=O)COC(=O)Cc1nnc(O)c2ccccc12
[4]
  IC50: > 79 µM (inactive)

## Cc1ccc(/C=C2/Sc3ccc(C(=O)N4CCN(c5ccccn5)CC4)cc3NC2=O)cc1
[9]
  EC50: 27.2 µM (active)
[11]
  EC50: 3.03 µM (active)
[10]
  EC50: 5.05 µM (active)
[12]
  EC50: > 150 µM (not active)
[13]
  EC50: 4.43 µM (active)

## Cc1ccc(C2C(C(=O)c3ccco3)=C(O)C(=O)N2c2nnc(C)s2)cc1 (centres undefined)
[9]
  EC50: > 300 µM (not active)
[10]
  EC50: > 300 µM (inconclusive)

## C=CCOC(=O)C1=C[C@H](c2cn(C(C)=O)c3ccccc23)C[C@H](OCc2ccc(CO)cc2)O1
[4]
  IC50: 10.3 µM (active)

## O=C(CN1C2CCC1CC(NC(=O)C1CC1)C2)NCc1ccccc1 (centres undefined)
[1]
  IC50: > 100 µM (inactive)

## CCOc1ccc(C(=O)COC(=O)Cn2[nH]c(=O)c3ccccc3c2=O)cc1
[4]
  IC50: > 79 µM (inactive)

## O=C(Cc1ccccc1)N/N=C/c1ccc2cccc(O)c2n1
[7]
  CC50: > 40 µM (active)

## NC(=S)N/N=C/c1ccccc1OCCSc1ccc(Cl)cc1
[14]
  EC50: 0.224 µM (active)
[7]
  CC50: 24.6 µM (active)
[15]
  EC50: > 60 µM (not active)

## N#CCC(=O)N/N=C/c1ccc(Sc2nc3ccccc3s2)o1
[8]
  IC50: 9.4 µM (active)

## O=C(NCc1ccc(F)c(F)c1)c1ccc(-c2ccc(F)c(F)c2)c2ccoc12
[1]
  IC50: < 3.13 µM (active)

## O=C(Nc1cccc(Oc2ccccc2)c1)C1Cc2c(-c3ccc4c(c3)OCO4)ccnc2O1 (centres undefined)
[1]
  IC50: > 100 µM (inactive)

## CC/N=c1\scc(-c2ccco2)n1/N=C/c1ccc(OC)c(O)c1
[7]
  CC50: > 40 µM (active)

## Cn1c(=O)[nH]c(=O)c2c1nc(N/N=C/C(Br)=C/c1ccccc1)n2CCO
[9]
  EC50: 206 µM (active)
[10]
  EC50: 55.5 µM (active)

## C=CCn1cc/c(=N\C=C(C#N)C#N)c2ccccc21
[9]
  EC50: > 300 µM (not active)
[10]
  EC50: > 300 µM (not active)

## Brc1ccc(-c2ccc(/C=N/Nc3nncc(-c4ccccc4)n3)o2)cc1
[7]
  CC50: 20.7 µM (active)

## O=C(Nc1ccc(Cl)cc1)Nc1ccc(Br)cn1
[1]
  IC50: > 100 µM (inactive)

## CN(C)CCCO[C@@H]1[C@H]2OC(C)(C)O[C@H]2O[C@@H]1[C@H](O)CO [AMIPRILOSE HYDROCHLORIDE]
[1]
  IC50: > 100 µM (inactive)

## O=c1[nH]c2cc(Cl)c(Br)cc2o1 [BROMCHLORENONE]
[1]
  IC50: > 100 µM (inactive)
